In PubChem BioAssay AID2060895 (Molecular Pharmacology Branch, DTP, NCI, 2025):
Blank lines part the entries; values can stand above or below the compound they belong to.

Test system: PDC 899932-113-R3-J6 complex spheroid viability
Assay: Anticancer human tumor 899932-113-R3-J6-PDC patient-derived melanoma cell line growth inhibition [RAS]
Details: for IC50: curve of first compound; for viability, T/C: stronger effect = lower value
Procedure, shortened: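 Agents were tested in combination matrices in half-log decrements from a top concentration at or near clinical Cmax (10 microM if undetermined). Targets were multi-cell spheroids of tumour lines plus HUVEC and MSC stromal cells.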

[1] = second compound 0.000949 µM, first compound 0.0316 µM
[2] = second compound 0.000949 µM, first compound 0.1 µM
[3] = second compound 0.000949 µM, first compound 0.316 µM
[4] = second compound 0.000949 µM, first compound 1 µM
[5] = second compound 0.003 µM, first compound 0.0316 µM
[6] = second compound 0.003 µM, first compound 0.1 µM
[7] = second compound 0.003 µM, first compound 0.316 µM
[8] = second compound 0.003 µM, first compound 1 µM
[9] = second compound 0.00949 µM, first compound 0.0316 µM
[10] = second compound 0.00949 µM, first compound 0.1 µM
[11] = second compound 0.00949 µM, first compound 0.316 µM
[12] = second compound 0.00949 µM, first compound 1 µM
[13] = second compound 0.03 µM, first compound 0.0316 µM
[14] = second compound 0.03 µM, first compound 0.1 µM
[15] = second compound 0.03 µM, first compound 0.316 µM
[16] = second compound 0.03 µM, first compound 1 µM
[17] = second compound 0.0949 µM, first compound 0.0316 µM
[18] = second compound 0.0949 µM, first compound 0.1 µM
[19] = second compound 0.0949 µM, first compound 0.316 µM
[20] = second compound 0.0949 µM, first compound 1 µM
[21] = second compound 0.3 µM, first compound 0.0316 µM
[22] = second compound 0.3 µM, first compound 0.1 µM
[23] = second compound 0.3 µM, first compound 0.316 µM
[24] = second compound 0.3 µM, first compound 1 µM
[25] = second compound 0.000949 µM, first compound 3.16 µM
[26] = second compound 0.000949 µM, first compound 10 µM
[27] = second compound 0.003 µM, first compound 3.16 µM
[28] = second compound 0.003 µM, first compound 10 µM
[29] = second compound 0.00949 µM, first compound 3.16 µM
[30] = second compound 0.00949 µM, first compound 10 µM
[31] = second compound 0.03 µM, first compound 3.16 µM
[32] = second compound 0.03 µM, first compound 10 µM
[33] = second compound 0.0949 µM, first compound 3.16 µM
[34] = second compound 0.0949 µM, first compound 10 µM
[35] = second compound 0.3 µM, first compound 3.16 µM
[36] = second compound 0.3 µM, first compound 10 µM
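Throughout, for viability, T/C: spheroids exposed to agents for seven days before readout; 100% = DMSO vehicle control wells.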

IC50 (second compound 0.000949 µM): > 1 µM | IC50 (second compound 0.003 µM): 0.6 µM | IC50 (second compound 0.00949 µM): 0.51 µM | IC50 (second compound 0.03 µM): 0.52 µM | IC50 (second compound 0.0949 µM): 0.641 µM | IC50 (second compound 0.3 µM): > 1 µM
Compound: CCN1CCN(Cc2ccc(Nc3ncc(F)c(-c4cc(F)c5nc(C)n(C(C)C)c5c4)n3)nc2)CC1 + CCn1c(-c2cccnc2C(C)OC)c2c3cc(ccc31)N1CCOC(CC(NC(=O)C(C(C)C)N(C)C(=O)C3(F)CCN(C(=O)C#CC(C)(C)N(C)C)CC3)C(=O)N3CCCC(N3)C(=O)OCC(C)(C)C2)C1
viability, T/C (second compound 0.000949 µM, first compound 0.00316 µM): 105% | viability, T/C (second compound 0.000949 µM, first compound 0.01 µM): 104% | viability, T/C [1]: 99.5% | viability, T/C [2]: 82.7% | viability, T/C [3]: 52.9% | viability, T/C [4]: 52.1% | viability, T/C (second compound 0.003 µM, first compound 0.00316 µM): 108% | viability, T/C (second compound 0.003 µM, first compound 0.01 µM): 99.6% | viability, T/C [5]: 96.1% | viability, T/C [6]: 84.2% | viability, T/C [7]: 57.6% | viability, T/C [8]: 43.1% | viability, T/C (second compound 0.00949 µM, first compound 0.00316 µM): 105% | viability, T/C (second compound 0.00949 µM, first compound 0.01 µM): 106% | viability, T/C [9]: 96.6% | viability, T/C [10]: 85.6% | viability, T/C [11]: 52.4% | viability, T/C [12]: 45.4% | viability, T/C (second compound 0.03 µM, first compound 0.00316 µM): 103% | viability, T/C (second compound 0.03 µM, first compound 0.01 µM): 97.2% | viability, T/C [13]: 92.5% | viability, T/C [14]: 77.7% | viability, T/C [15]: 52.3% | viability, T/C [16]: 45.5% | viability, T/C (second compound 0.0949 µM, first compound 0.00316 µM): 99.8% | viability, T/C (second compound 0.0949 µM, first compound 0.01 µM): 90.6% | viability, T/C [17]: 88% | viability, T/C [18]: 73.1% | viability, T/C [19]: 55.7% | viability, T/C [20]: 46.2% | viability, T/C (second compound 0.3 µM, first compound 0.00316 µM): 91.4% | viability, T/C (second compound 0.3 µM, first compound 0.01 µM): 89.2% | viability, T/C [21]: 83.4% | viability, T/C [22]: 70.5% | viability, T/C [23]: 49.9% | viability, T/C [24]: 53.3%

IC50 (second compound 0.000949 µM): > 10 µM | IC50 (second compound 0.003 µM): > 10 µM | IC50 (second compound 0.00949 µM): > 10 µM | IC50 (second compound 0.03 µM): > 10 µM | IC50 (second compound 0.0949 µM): > 10 µM | IC50 (second compound 0.3 µM): > 10 µM
Compound: Cc1nc(N2CCC3(CC2)COC(C)C3N)c(CO)nc1Sc1ccnc(N)c1Cl (stereo unspecified) + CCn1c(-c2cccnc2C(C)OC)c2c3cc(ccc31)N1CCOC(CC(NC(=O)C(C(C)C)N(C)C(=O)C3(F)CCN(C(=O)C#CC(C)(C)N(C)C)CC3)C(=O)N3CCCC(N3)C(=O)OCC(C)(C)C2)C1
viability, T/C [1]: 109% | viability, T/C [2]: 102% | viability, T/C [3]: 108% | viability, T/C [4]: 113% | viability, T/C [25]: 112% | viability, T/C [26]: 118% | viability, T/C [5]: 102% | viability, T/C [6]: 96.8% | viability, T/C [7]: 107% | viability, T/C [8]: 116% | viability, T/C [27]: 109% | viability, T/C [28]: 110% | viability, T/C [9]: 93.2% | viability, T/C [10]: 95.5% | viability, T/C [11]: 112% | viability, T/C [12]: 121% | viability, T/C [29]: 114% | viability, T/C [30]: 110% | viability, T/C [13]: 91.7% | viability, T/C [14]: 89.3% | viability, T/C [15]: 108% | viability, T/C [16]: 110% | viability, T/C [31]: 108% | viability, T/C [32]: 106% | viability, T/C [17]: 91.2% | viability, T/C [18]: 85.8% | viability, T/C [19]: 103% | viability, T/C [20]: 94.2% | viability, T/C [33]: 105% | viability, T/C [34]: 107% | viability, T/C [21]: 82.5% | viability, T/C [22]: 80.9% | viability, T/C [23]: 95.6% | viability, T/C [24]: 81.6% | viability, T/C [35]: 94.3% | viability, T/C [36]: 90.7%

IC50 (second compound 0.000949 µM): > 10 µM | IC50 (second compound 0.003 µM): > 10 µM | IC50 (second compound 0.00949 µM): > 10 µM | IC50 (second compound 0.03 µM): > 10 µM | IC50 (second compound 0.0949 µM): > 10 µM | IC50 (second compound 0.3 µM): > 10 µM
Compound: NC1c2ccccc2OC12CCN(c1cnc3c(N4CCCc5ncccc54)n[nH]c3n1)CC2 (stereo unspecified) + CCn1c(-c2cccnc2C(C)OC)c2c3cc(ccc31)N1CCOC(CC(NC(=O)C(C(C)C)N(C)C(=O)C3(F)CCN(C(=O)C#CC(C)(C)N(C)C)CC3)C(=O)N3CCCC(N3)C(=O)OCC(C)(C)C2)C1
viability, T/C [1]: 113% | viability, T/C [2]: 102% | viability, T/C [3]: 112% | viability, T/C [4]: 120% | viability, T/C [25]: 114% | viability, T/C [26]: 101% | viability, T/C [5]: 113% | viability, T/C [6]: 112% | viability, T/C [7]: 111% | viability, T/C [8]: 120% | viability, T/C [27]: 111% | viability, T/C [28]: 110% | viability, T/C [9]: 112% | viability, T/C [10]: 112% | viability, T/C [11]: 110% | viability, T/C [12]: 129% | viability, T/C [29]: 120% | viability, T/C [30]: 109% | viability, T/C [13]: 112% | viability, T/C [14]: 116% | viability, T/C [15]: 105% | viability, T/C [16]: 117% | viability, T/C [31]: 112% | viability, T/C [32]: 106% | viability, T/C [17]: 100% | viability, T/C [18]: 102% | viability, T/C [19]: 94.4% | viability, T/C [20]: 113% | viability, T/C [33]: 108% | viability, T/C [34]: 98.5% | viability, T/C [21]: 97.7% | viability, T/C [22]: 85.1% | viability, T/C [23]: 95.7% | viability, T/C [24]: 96.8% | viability, T/C [35]: 92.6% | viability, T/C [36]: 85.7%
